Several values for one entry are separate records, joined by “and”; a condition that tells them apart may be missing. Equal entries are not always repeated. Inconclusive results and toxic doses are left out. Rule as the data show it: active = T/C of 150% or more; inactive = T/C below 125%.
Tested on: L1210 leukemia ip in BDF1 mice, survival T/C
Test: NCI In Vivo Anticancer Drug Screen. Data for tumor model L1210 Leukemia (intraperitoneal) in B6D2F1 (BDF1) mice
Conditions: endpoint: mean survival time, higher = longer survival
Method in brief: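 Read-out is survival time, reported as the treated-group measurement over the vehicle-control measurement.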

[1] = dose: 100.0 mg/kg/injection, schedule: Q04DX003 (ip), vehicle: saline with Tween-80
[2] = dose: 200.0 mg/kg/injection, schedule: Q04DX003 (ip), vehicle: saline with Tween-80
[3] = dose: 100.0 mg/kg/injection, schedule: Q04DX003 (ip), vehicle: Klucel (hydroxypropylcellulose) (HPC)
[4] = dose: 200.0 mg/kg/injection, schedule: Q04DX003 (ip), vehicle: Klucel (hydroxypropylcellulose) (HPC)
[5] = dose: 100.0 mg/kg/injection, schedule: Q01DX009 (ip), vehicle: Klucel (hydroxypropylcellulose) (HPC)
[6] = dose: 200.0 mg/kg/injection, schedule: Q01DX009 (ip), vehicle: Klucel (hydroxypropylcellulose) (HPC)
[7] = dose: 400.0 mg/kg/injection, schedule: Q01DX009 (ip), vehicle: Klucel (hydroxypropylcellulose) (HPC)
[8] = dose: 100.0 mg/kg/injection, schedule: Q04DX003 (ip), vehicle: saline
[9] = dose: 200.0 mg/kg/injection, schedule: Q04DX003 (ip), vehicle: saline
[10] = dose: 400.0 mg/kg/injection, schedule: Q04DX003 (ip), vehicle: saline
[11] = dose: 50.0 mg/kg/injection, schedule: Q01DX009 (ip), vehicle: saline
[12] = dose: 100.0 mg/kg/injection, schedule: Q01DX009 (ip), vehicle: saline
[13] = dose: 200.0 mg/kg/injection, schedule: Q01DX009 (ip), vehicle: saline
[14] = dose: 400.0 mg/kg/injection, schedule: Q01DX009 (ip), vehicle: saline
[15] = dose: 100.0 mg/kg/injection, schedule: Q01DX001 (ip), vehicle: saline
[16] = dose: 200.0 mg/kg/injection, schedule: Q01DX001 (ip), vehicle: saline

Measured: T/C

CNS(=O)(=O)CCC1NC(=O)NC1=O (stereo not given)
inactive: [1] 100 % of control | [2] 105 % of control | dose: 400.0 mg/kg/injection, schedule: Q04DX003 (ip), vehicle: saline with Tween-80 101 % of control

O=C(C#Cc1ccccc1)/C=C/c1ccccc1
inactive: [3] 88 % of control | [4] 98 % of control

Nc1ncnc(N)c1N(C=O)Cc1ccccc1
inactive: dose: 100.0 mg/kg/injection, schedule: Q01DX001 (ip), vehicle: acetone 96 % of control | dose: 200.0 mg/kg/injection, schedule: Q01DX001 (ip), vehicle: acetone 94 % of control | dose: 400.0 mg/kg/injection, schedule: Q01DX001 (ip), vehicle: acetone 91 % of control

CC(CC(=O)O)C(C(=O)O)C(=O)O (stereo not given)
inactive: dose: 25.0 mg/kg/injection, schedule: Q01DX009 (ip), vehicle: water 110 % of control | dose: 50.0 mg/kg/injection, schedule: Q01DX009 (ip), vehicle: water 108 % of control | dose: 100.0 mg/kg/injection, schedule: Q01DX009 (ip), vehicle: water 106 % of control | dose: 200.0 mg/kg/injection, schedule: Q01DX009 (ip), vehicle: water 101 % of control

C(=N\Nc1nc2ccccc2s1)/c1ccncc1
inactive: [5] 106 % of control | [6] 96 % of control | [7] 98 % of control

ClC12CCC(CC1)C2
inactive: dose: 100.0 mg/kg/injection, schedule: Q04DX002 (ip), vehicle: saline 96 % of control | dose: 200.0 mg/kg/injection, schedule: Q04DX002 (ip), vehicle: saline 104 % of control | dose: 400.0 mg/kg/injection, schedule: Q04DX002 (ip), vehicle: saline 93 % of control

O=c1ccc2c(COc3ccc(Cl)cc3Cl)c3ccc(O)cc3oc-2c1
inactive: [3] 99 % of control | [4] 99 % of control

CN(C)CCc1nn[nH]n1
inactive: [8] 102 % of control | [9] 97 % of control | [10] 105 % of control

O=COC1CC2CC1C1CCCC21 (stereo not given)
inactive: [1] 94 % of control | [2] 92 % of control

CCOC(=O)c1cc(=O)[nH]c2cc(N)ccc12
inactive: [5] 86 % of control | [6] 89 % of control | [7] 86 % of control

NC(Cc1cnc(N=Nc2ccc(C(=O)O)cc2)[nH]1)C(=O)O (stereo not given)
inactive: dose: 50.0 mg/kg/injection, schedule: Q01DX009 (ip), vehicle: saline with Tween-80 100 % of control | dose: 100.0 mg/kg/injection, schedule: Q01DX009 (ip), vehicle: saline with Tween-80 95 % of control | dose: 200.0 mg/kg/injection, schedule: Q01DX009 (ip), vehicle: saline with Tween-80 103 % of control

NC(CCSC(c1ccccc1)(c1ccccc1)c1ccccc1)C(=O)O (stereo not given)
inactive: [11] 94 % of control and 103 % of control | [12] 95 % of control and 107 % of control | [13] 97 % of control and 106 % of control | [14] 100 % of control and 108 % of control

COC(=O)C1(C(=O)OC)NNC(=O)c2cc(Br)ccc2N1
inactive: dose: 50.0 mg/kg/injection, schedule: Q01DX001 (ip), vehicle: saline 101 % of control | [15] 89 % of control | [16] 95 % of control

COc1ccc(SC2=C(N(C)C(C)=O)C(=O)c3ccccc3C2=O)cc1
inactive: dose: 7.5 mg/kg/injection, schedule: Q01DX009 (ip), vehicle: Klucel (hydroxypropylcellulose) (HPC) 89 % of control | dose: 15.0 mg/kg/injection, schedule: Q01DX001 (ip), vehicle: Klucel (hydroxypropylcellulose) (HPC) 93 % of control | dose: 15.0 mg/kg/injection, schedule: Q01DX009 (ip), vehicle: Klucel (hydroxypropylcellulose) (HPC) 92 % of control | dose: 30.0 mg/kg/injection, schedule: Q01DX001 (ip), vehicle: Klucel (hydroxypropylcellulose) (HPC) 88 % of control | dose: 30.0 mg/kg/injection, schedule: Q01DX009 (ip), vehicle: Klucel (hydroxypropylcellulose) (HPC) 89 % of control

NNP(=O)(N1CCCCC1)N1CCCCC1
inactive: dose: 100.0 mg/kg/injection, schedule: Q04DX002 (ip), vehicle: saline with Tween-80 90 % of control | dose: 200.0 mg/kg/injection, schedule: Q04DX002 (ip), vehicle: saline with Tween-80 97 % of control

C/C=C/CC1(Cc2ccccc2)C(=O)NC(=S)NC1=O
inactive: dose: 10.0 mg/kg/injection, schedule: Q01DX001 (ip), vehicle: saline 102 % of control | dose: 20.0 mg/kg/injection, schedule: Q01DX001 (ip), vehicle: saline 111 % of control

CC(=O)Nc1nc(C)c(CCC#N)c(=O)[nH]1
inactive: [12] 101 % of control | [8] 96 % of control | [13] 101 % of control | [9] 91 % of control | [14] 95 % of control | [10] 101 % of control

NC(CCCCNC(c1ccccc1)(c1ccccc1)c1ccccc1)C(=O)O (stereo not given)
inactive: dose: 12.5 mg/kg/injection, schedule: Q01DX009 (ip), vehicle: saline 102 % of control | dose: 25.0 mg/kg/injection, schedule: Q01DX009 (ip), vehicle: saline 101 % of control | [11] 101 % of control | [12] 97 % of control

OCCCNc1nc2c(Cl)cc(Cl)cc2c2ccccc12
inactive: [5] 104 % of control | [3] 107 % of control | [6] 94 % of control | [4] 108 % of control | dose: 400.0 mg/kg/injection, schedule: Q04DX003 (ip), vehicle: Klucel (hydroxypropylcellulose) (HPC) 95 % of control

CC1([N+](=O)[O-])COP(=O)(NCC2CCCO2)OC1 (stereo not given)
inactive: dose: 50.0 mg/kg/injection, schedule: Q01DX001 (ip), vehicle: carboxymethylcellulose (CMC) 98 % of control | dose: 100.0 mg/kg/injection, schedule: Q01DX001 (ip), vehicle: carboxymethylcellulose (CMC) 104 % of control | dose: 200.0 mg/kg/injection, schedule: Q01DX001 (ip), vehicle: carboxymethylcellulose (CMC) 104 % of control | dose: 400.0 mg/kg/injection, schedule: Q01DX001 (ip), vehicle: carboxymethylcellulose (CMC) 93 % of control

O=[N+]([O-])c1ccc2c(c1)-c1ccccc1/C2=C1\c2ccccc2-c2cc([N+](=O)[O-])ccc21
inactive: dose: 100.0 mg/kg/injection, schedule: Q01DX005 (ip), vehicle: Klucel (hydroxypropylcellulose) (HPC) 105 % of control | dose: 100.0 mg/kg/injection, schedule: Q04DX002 (ip), vehicle: Klucel (hydroxypropylcellulose) (HPC) 90 % of control | dose: 200.0 mg/kg/injection, schedule: Q01DX005 (ip), vehicle: Klucel (hydroxypropylcellulose) (HPC) 91 % of control | dose: 200.0 mg/kg/injection, schedule: Q04DX002 (ip), vehicle: Klucel (hydroxypropylcellulose) (HPC) 104 % of control | dose: 400.0 mg/kg/injection, schedule: Q01DX005 (ip), vehicle: Klucel (hydroxypropylcellulose) (HPC) 91 % of control | dose: 400.0 mg/kg/injection, schedule: Q04DX002 (ip), vehicle: Klucel (hydroxypropylcellulose) (HPC) 96 % of control

O=C(C(=Nc1ccc(Br)cc1)C(Nc1ccc(Br)cc1)C(=O)c1ccccc1)c1ccccc1 (stereo not given)
inactive: [15] 96 % of control | [16] 91 % of control | dose: 400.0 mg/kg/injection, schedule: Q01DX001 (ip), vehicle: saline 94 % of control

From PubChem BioAssay AID248 (DTP/NCI, 2004)
